Biological target: Eukaryotic translation initiation factor 4H (Homo sapiens, UniProt Q15056)
Assay: inhibitors of translation initiation factor eIF4H – SAR follow-up (AID 435011)

COc1cc([CH+][N-]NC(=O)c2ccc(O)cc2)ccc1OCC(=O)Nc1cccc([N+](=O)[O-])c1
IC50: > 100 µM
